Experimental data from US12059498B2, “Preparation and storage of liposomal RNA formulations suitable for therapy” (BioNTech SE, priority 2017, dated 2024).
“Also recorded” adds a separate entry of the source.

assay: Freezing of RNA lipoplexes with cryoprotectants, particle size; details: RNA lipoplexes frozen with increasing concentration of the compound
Source text: Methods: Different compounds representative for monosaccharides (glucose and sorbitol), disaccharides (sucrose and trehalose), amino acids (arginine, prolin), triols (glycerin) as well as cryoprotectant systems containing mixtures of different sugars (mannitol and sucrose) were investigated in order to identify suited cryoprotectants (FIGS. 25 and 26). Therefore RNA lipoplexes were frozen in the presence of increasing concentration of these compounds. In order to identify minimum content of cryoprotectant at a certain concentration of NaCl, RNA lipoplexes were frozen in the presence of increasing amounts of sucrose or trehalose as representative cryoprotectants (Table 7). The samples were initially frozen a single time in order to determine the concentration range of cryoprotectant to be investigated in detail. In a third experiment, the efficacy of stabilization of the particle size was challenged by freezing of the RNA lipoplexes up to 10 times in the presence of the cryoprotectant trehalose (Table 8).

Row | Structure (SMILES) | stabilization of RNA lipoplexes during freezing (as cryoprotectant)
1 | OC[C@@H](O)[C@@H](O)[C@H](O)[C@@H](O)CO [sorbitol] | can be used as cryoprotectants; also recorded: lower
2 | N=C(N)NCCC[C@H](N)C(=O)O [arginine] | clearly destabilizes the RNA lipoplexes
3 | OCC(O)CO [Glycerin] | can be used as cryoprotectants
